Measured values as given in patent publication US20190008870A1, “COMPOSITIONS AND METHODS FOR LIPID METABOLISM DISORDER” (JANSFAT BIOTECHNOLOGY CO., LTD., priority 2016, published 2019).
Blank lines part the entries; values can stand above or below the molecule they belong to.

Columns and labels:
[1] = test system: mice fed with HFD; experiment: Serum and liver lipid levels of mice fed with HFD; format: in vivo
Procedure: (§1) During the 2 month experiments, mice fasted for one night before the experiment was changed from a standard diet (STD) to an HFD and then the mice were randomly divided into 13 groups, including a protection group, 2 control and 10 treatment groups. Six mice were used in each group. […] Liver from the protection group supplemented with KMUP-1 HCl (1 mg/kg/day) were used to determine the HMG CoA reductase expression. Each group of mice had free access to drinking water from week 1 to week 14. Tap water was used to normalize mineral nutrition.
Within 2 months, the 3 day food intake average for each animal was measured. The weight gain and plasma lipid levels of each group were determined and compared to the non-treatment control group. […] Agents used in the assays were obtained from Merck & Co. (Kenilworth, N.J., U.S.A.). Triglyceride (TG), total cholesterol, HDL cholesterol and LDL cholesterol in mouse serum were measured by methods used in the clinic. To measure the hepatic Triglyceride, isolated liver were cut into small chips.

[2] = test system: HMG CoA reductase; experiment: HFD-induced HMG CoA reductase expression in liver; format: in vivo, mice
Procedure: as §1, with “In the experiment, C57BL/6J male mice (21-22 g), after fasting, were fed an HFD as a model of hyperlipidemia for 8 weeks. During” for “During”
(§2) For the expression of SR-B1, HMGR, PPARγ and ROCK II, isolated liver tissues were cut into small chips and placed into an extraction buffer (Tris 10 mM, pH 7.0, NaCl 140 mM, PMSF 2 mM, DTT 5 mM, NP-40 0.5%, pepstatin A 0.05 mM and leupeptin 0.2 mM) for hepatic protein extraction, and centrifuged at 20,000×g for 30 minutes. The obtained protein extract was boiled to a ratio of 4:1 with a sample buffer (Tris 100 mM, pH 6.8, glycerol 20%, SDS 4% and bromophenol blue 0.2%). Electrophoresis was performed using 10% SDS-polyacrylamide gel (1 hour, 100 V, 40 mA, 20 μg protein per lane).
(§3) Separated proteins, after 3 repeated centrifugations to discard up-layer tissue lipid in purity, were transferred to PVDF membranes treated with 5% fat-free milk powder to block the nonspecific IgGs (90 minutes, 100 V) and incubated for 1 hour with specific protein antibody. The blot was then incubated with anti-mouse or anti-goat IgG linked to alkaline phosphatase (1:1000) for 1 hour.

[3] = test system: PPARγ; experiment: HFD-induced PPARγ expression in liver; format: in vivo, mice
Procedure: as §1, with “In the experiment, C57BL/6J male mice (21-22 g), after fasting, were fed an HFD as a model of hyperlipidemia for 8 weeks. During” for “During”
as §2, §3

[4] = test system: ABCA1; experiment: ABCA1 expression in HepG2 cells; format: cell-based; settings: for ABCA1 expression: 10^−5 M, 24 hours, Control 100, Vehicle 110
Procedure: The HepG2 hepatoma cell line was purchased from the American Type Culture Collection (ATCC, Manassas, Va., U.S.A.). Cells were cultured in Dulbecco's Modified Eagle's Medium (DMEM). […] Then the targeted drugs solution was incubated with the cells for 24 hours, followed by protein extraction. […] HepG2 cells were treated with various concentrations of targeted drugs for 24 hours. Reactions were terminated by washing twice with cold PBS, and the cells were then harvested. Proteins in the whole-cell lysate were homogenized in an ice-cold lysis buffer and a protease inhibitor (Sigma-Aldrich, St. Louis, Mo., U.S.A.). The homogenate was centrifuged at 90,000×g for 15 minutes at 4° C., and supernatant was recovered as the total cellular protein. Cytosolic and membrane fractions of HepG2 cells were prepared using a CNM (Cytosol Nuclear Membrane) compartmental protein extraction kit (BioChain Institute Inc., Hayward, Calif., U.S.A.) according to the manufacturer's instructions. All of the fractionated protein solutions were stored at −80° C. until analysis. To measure the expression levels of proteins by drugs, the total cell protein was extracted after incubation with treatments for 24 hours and then Western blotting analysis was performed as described previously.

[5] = biological target: T1, Human recombinant HMG CoA reductase (Homo sapiens, UniProt P04035); experiment: HMG CoA reductase activity and [14C]mevalonate formation; format: biochemical
T1 construct: purchased Sigma-Aldrich H7039; host or cells: E. coli
Procedure: Human recombinant HMG CoA reductase expressed in E. coli (H7039, Sigma-Aldrich, MO, U.S.A.) was used. Human recombinant HMG-CoA reductase, examined by SDS-PAGE to be ≥90% in purity, 2-8 units/mg protein in activity and ˜76 kDa in molecular weight (H7039, Sigma-Aldrich, St. Louis, Mo. U.S.A.), was used for determining the formation of [^14C]mevalonate. KMUP-1 and targeted drugs were pre-incubated with 35 ng/ml enzyme in phosphate buffer pH 7.5 for 15 minutes at 37° C. The reaction was initiated by the addition of 2.5 μM [^14C]HMG-CoA for another 20 minutes incubation period and terminated by further addition of 1 N HCl. An aliquot was removed by column and counted to determine the amount of [^14C]mevalonate formed (Ricera® Co. Ltd., Taipei, Taiwan).

[6] = Body weight and food intake of mice fed with HFD; format: in vivo
Procedure: as §1, with “In the experiment, C57BL/6J male mice (21-22 g), after fasting, were fed an HFD as a model of hyperlipidemia for 8 weeks. During” for “During”
Within 2 months, the 3 day food intake average for each animal was measured. The weight gain and plasma lipid levels of each group were determined and compared to the non-treatment control group. Mouse blood was collected during the daytime by cardiac puncture followed by centrifugation at 90×g (Benchtop Centrifuge, U.S.A.) to separate the serum, and frozen at −80° C., for biochemical analysis using a Hitachi Clinical Analyzer 7070 (Hitachi High-Technologies Co. Tokyo, Japan). Agents used in the assays were obtained from Merck & Co. (Kenilworth, N.J., U.S.A.). Triglyceride (TG), total cholesterol, HDL cholesterol and LDL cholesterol in mouse serum were measured by methods used in the clinic. To measure the hepatic Triglyceride, isolated liver were cut into small chips.

[7] = Simva 5 mg/kg, CTL 100 (Table 9)

T1 sequence (P04035 426-888 limits assumed): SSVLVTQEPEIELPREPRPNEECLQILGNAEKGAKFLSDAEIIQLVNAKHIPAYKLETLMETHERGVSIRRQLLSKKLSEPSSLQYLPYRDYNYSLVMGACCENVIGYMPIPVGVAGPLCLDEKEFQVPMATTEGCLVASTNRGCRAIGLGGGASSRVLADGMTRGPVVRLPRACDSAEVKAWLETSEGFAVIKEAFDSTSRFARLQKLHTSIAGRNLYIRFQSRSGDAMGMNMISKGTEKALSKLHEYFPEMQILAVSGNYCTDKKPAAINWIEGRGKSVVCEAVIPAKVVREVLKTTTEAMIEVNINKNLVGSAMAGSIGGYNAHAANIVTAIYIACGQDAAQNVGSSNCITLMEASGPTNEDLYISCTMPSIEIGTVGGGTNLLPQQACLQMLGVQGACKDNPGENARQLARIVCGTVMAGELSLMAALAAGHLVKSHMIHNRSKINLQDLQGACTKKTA

inhibition of [14C]mevalonate formation ([5]; compared to the vehicle group): 86.6±4.2%
SMILES: CCC(C)(C)C(=O)O[C@H]1C[C@@H](C)C=C2C=C[C@H](C)[C@H](CC[C@@H]3C[C@@H](O)CC(=O)O3)[C@H]21 [Simva, Simvastatin, reference compound]
HDL chol. ([1]; Dose 5 mg/kg (Table 2)): 108.4 ± 1.3 mg/dL
LDL chol. ([1]; Dose 5 mg/kg (Table 2)): 17.3 ± 1.4 mg/dL
TG ([1]; Dose 5 mg/kg (Table 2)): 81.2 ± 4.4 mg/dL
Tot. chol. ([1]; Dose 5 mg/kg (Table 2)): 129.7 ± 1.4 mg/dL
HMGR [2, 7]: 100%
PPARγ [3, 7]: 280%
ABCA1 expression ([4]; HepG2 cells): 146

SMILES: Cn1c(=O)c2c(ncn2CCN2CCN(c3ccccc3Cl)CC2)n(C)c1=O [KMUP-1, 7-[2-[4-(2-chlorophenyl)piperazinyl]ethyl]-1,3-dimethylxanthine]
HDL cholesterol ([1]; 2.5 mg/kg p.o.): 103.6 ± 4.2 mg/dL
LDL cholesterol ([1]; 2.5 mg/kg p.o.): 14.2 ± 1.4 mg/dL
TG in serum (Triacylglycerol) ([1]; 2.5 mg/kg p.o.): 74.5 ± 5.1 mg/dL
TG of liver ([1]; 2.5 mg/kg p.o.): 28.4 ± 3.6 mg/dL
Tot. chol. (total cholesterol) ([1]; 2.5 mg/kg p.o.): 133.0 ± 5.1 mg/dL
HDL cholesterol ([1]; 5 mg/kg p.o.): 118.3 ± 5.7 mg/dL
LDL cholesterol ([1]; 5 mg/kg p.o.): 14.2 ± 2.2 mg/dL
TG in serum (Triacylglycerol) ([1]; 5 mg/kg p.o.): 72.7 ± 4.7 mg/dL
TG of liver ([1]; 5 mg/kg p.o.): 26.12 ± 3.1 mg/dL
Tot. chol. (total cholesterol) ([1]; 5 mg/kg p.o.): 125.5 ± 9.8 mg/dL
HDL chol. ([1]; Dose 2.5 mg/kg (Table 2)): 103.6 ± 4.2 mg/dL
LDL chol. ([1]; Dose 2.5 mg/kg (Table 2)): 14.2 ± 1.4 mg/dL
TG ([1]; Dose 2.5 mg/kg (Table 2)): 74.5 ± 5.1 mg/dL
Tot. chol. ([1]; Dose 2.5 mg/kg (Table 2)): 133 ± 5.1 mg/dL
HDL chol. ([1]; Dose 5 mg/kg (Table 2)): 118.3 ± 5.7 mg/dL
LDL chol. ([1]; Dose 5 mg/kg (Table 2)): 14.2 ± 2.2 mg/dL
TG ([1]; Dose 5 mg/kg (Table 2)): 72.67 ± 4.7 mg/dL
Tot. chol. ([1]; Dose 5 mg/kg (Table 2)): 125.5 ± 9.8 mg/dL
HFD-induced hypercholesterolemia ([1]; supplementation): significantly improved
body-weight gain ([6]; HFD mice 8 weeks, KMUP-1 HCl 2.5, 5 mg/kg p.o., simvastatin 5 mg/kg p.o., compared to the control HFD group (p<0.05)): reduced
final BW (Body weight) ([6]; HFD mice, 2.5 mg/kg p.o.): 25.7 ± 0.7 g
final BW (Body weight) ([6]; HFD mice, 5 mg/kg p.o.): 24.3 ± 0.5 g
body weight ([6]; HFD mice, drinking 2.5 mg/200 ml water, protection and treatment groups): decreased
HMGR ([2]; HFD mice, 1 mg/kg, CTL 100): 43%
HMGR ([2]; HFD mice, 2.5 mg/kg, CTL 100): 150%
HMGR ([2]; HFD mice, 5 mg/kg, CTL 100): 140%
PPARγ ([3]; HFD mice, 1 mg/kg, CTL 100): 53%
PPARγ ([3]; HFD mice, 2.5 mg/kg, CTL 100): 249%
PPARγ ([3]; HFD mice, 5 mg/kg, CTL 100): 245%
expression of ABCA1 ([4]; HepG2, 10^−9-10^−5 M): increased
ABCA1 expression ([4]; HepG2 cells): 200
expression of ABCA1 suppressed by FPP or GGPP ([4]; HepG2 cells, FPP or GGPP (10 μM) + 10^−9-10^−5 M): reversed
[14C]mevalonate formation ([5]; 10 μM): could not reduce
